# Measurements reported in PubChem BioAssay AID2060330 (Molecular Pharmacology Branch, DTP, NCI, 2025).
# System: LG0703-F948-PDC spheroids with HUVEC/MSC, viability
# Assay: Anticancer human tumor LG0703-F948-PDC patient-derived lung adenocarcinoma cell line growth inhibition [IpAb]
# Settings: for IC50: curve of first compound; for viability, T/C: stronger effect = lower value
# In short: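 Multi-cell spheroids of 60% tumour cells, 25% HUVEC and 15% MSC in ultra-low-attachment U-bottom wells, treated with agents combined with ipatasertib or abemaciclib. Half-log ranges top out near clinical Cmax, or 10 microM when Cmax is unknown.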
# 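Further: spheroids exposed to compounds for seven days before readout.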
# 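Wherever viability, T/C is given: T/C percent relative to DMSO vehicle wells set as 100% viability.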
smiles,measurement,setting,value
C=CCn1c(=O)c2cnc(Nc3ccc(N4CCN(C)CC4)cc3)nc2n1-c1cccc(C(C)(C)O)n1 + CCN1CCN(Cc2ccc(Nc3ncc(F)c(-c4cc(F)c5nc(C)n(C(C)C)c5c4)n3)nc2)CC1,IC50,second compound 0.01 µM,1.16 µM
same,IC50,second compound 0.0316 µM,1.01 µM
same,IC50,second compound 0.1 µM,0.898 µM
same,IC50,second compound 0.316 µM,0.862 µM
same,IC50,second compound 1 µM,0.421 µM
same,"viability, T/C","second compound 0.01 µM, first compound 0.0316 µM",120%
same,"viability, T/C","second compound 0.01 µM, first compound 0.1 µM",101%
same,"viability, T/C","second compound 0.01 µM, first compound 0.316 µM",86%
same,"viability, T/C","second compound 0.01 µM, first compound 1 µM",58.9%
same,"viability, T/C","second compound 0.01 µM, first compound 3.16 µM",17.3%
same,"viability, T/C","second compound 0.01 µM, first compound 10 µM",8.27%
same,"viability, T/C","second compound 0.0316 µM, first compound 0.0316 µM",99.6%
same,"viability, T/C","second compound 0.0316 µM, first compound 0.1 µM",94.1%
same,"viability, T/C","second compound 0.0316 µM, first compound 0.316 µM",78.7%
same,"viability, T/C","second compound 0.0316 µM, first compound 1 µM",53.2%
same,"viability, T/C","second compound 0.0316 µM, first compound 3.16 µM",16.6%
same,"viability, T/C","second compound 0.0316 µM, first compound 10 µM",6.85%
same,"viability, T/C","second compound 0.1 µM, first compound 0.0316 µM",95.8%
same,"viability, T/C","second compound 0.1 µM, first compound 0.1 µM",76.5%
same,"viability, T/C","second compound 0.1 µM, first compound 0.316 µM",71.2%
same,"viability, T/C","second compound 0.1 µM, first compound 1 µM",53.5%
same,"viability, T/C","second compound 0.1 µM, first compound 3.16 µM",16%
same,"viability, T/C","second compound 0.1 µM, first compound 10 µM",4.26%
same,"viability, T/C","second compound 0.316 µM, first compound 0.0316 µM",85.3%
same,"viability, T/C","second compound 0.316 µM, first compound 0.1 µM",79.6%
same,"viability, T/C","second compound 0.316 µM, first compound 0.316 µM",69.4%
same,"viability, T/C","second compound 0.316 µM, first compound 1 µM",47.7%
same,"viability, T/C","second compound 0.316 µM, first compound 3.16 µM",21.4%
same,"viability, T/C","second compound 0.316 µM, first compound 10 µM",7.46%
same,"viability, T/C","second compound 1 µM, first compound 0.0316 µM",88.4%
same,"viability, T/C","second compound 1 µM, first compound 0.1 µM",69.8%
same,"viability, T/C","second compound 1 µM, first compound 0.316 µM",51.8%
same,"viability, T/C","second compound 1 µM, first compound 1 µM",40.1%
same,"viability, T/C","second compound 1 µM, first compound 3.16 µM",21.8%
same,"viability, T/C","second compound 1 µM, first compound 10 µM",3.5%
Cn1cnc2c(F)c(Nc3ccc(Br)cc3Cl)c(C(=O)NOCCO)cc21 + CCN1CCN(Cc2ccc(Nc3ncc(F)c(-c4cc(F)c5nc(C)n(C(C)C)c5c4)n3)nc2)CC1,IC50,second compound 0.01 µM,0.27 µM
same,IC50,second compound 0.0316 µM,0.132 µM
same,IC50,second compound 0.1 µM,0.0541 µM
same,IC50,second compound 0.316 µM,0.288 µM
same,IC50,second compound 1 µM,0.0416 µM
same,"viability, T/C","second compound 0.01 µM, first compound 0.00949 µM",83%
same,"viability, T/C","second compound 0.01 µM, first compound 0.03 µM",74.6%
same,"viability, T/C","second compound 0.01 µM, first compound 0.0949 µM",55.4%
same,"viability, T/C","second compound 0.01 µM, first compound 0.3 µM",52.6%
same,"viability, T/C","second compound 0.01 µM, first compound 0.949 µM",46.7%
same,"viability, T/C","second compound 0.01 µM, first compound 3 µM",45%
same,"viability, T/C","second compound 0.0316 µM, first compound 0.00949 µM",80.4%
same,"viability, T/C","second compound 0.0316 µM, first compound 0.03 µM",61.5%
same,"viability, T/C","second compound 0.0316 µM, first compound 0.0949 µM",51.9%
same,"viability, T/C","second compound 0.0316 µM, first compound 0.3 µM",46.2%
same,"viability, T/C","second compound 0.0316 µM, first compound 0.949 µM",46.1%
same,"viability, T/C","second compound 0.0316 µM, first compound 3 µM",39.8%
same,"viability, T/C","second compound 0.1 µM, first compound 0.00949 µM",68.8%
same,"viability, T/C","second compound 0.1 µM, first compound 0.03 µM",54.5%
same,"viability, T/C","second compound 0.1 µM, first compound 0.0949 µM",43.9%
same,"viability, T/C","second compound 0.1 µM, first compound 0.3 µM",44.1%
same,"viability, T/C","second compound 0.1 µM, first compound 0.949 µM",45.2%
same,"viability, T/C","second compound 0.1 µM, first compound 3 µM",37%
same,"viability, T/C","second compound 0.316 µM, first compound 0.00949 µM",72.7%
same,"viability, T/C","second compound 0.316 µM, first compound 0.03 µM",64.9%
same,"viability, T/C","second compound 0.316 µM, first compound 0.0949 µM",48%
same,"viability, T/C","second compound 0.316 µM, first compound 0.3 µM",54.4%
same,"viability, T/C","second compound 0.316 µM, first compound 0.949 µM",48.8%
same,"viability, T/C","second compound 0.316 µM, first compound 3 µM",41.7%
same,"viability, T/C","second compound 1 µM, first compound 0.00949 µM",70.1%
same,"viability, T/C","second compound 1 µM, first compound 0.03 µM",53.6%
same,"viability, T/C","second compound 1 µM, first compound 0.0949 µM",38.4%
same,"viability, T/C","second compound 1 µM, first compound 0.3 µM",44%
same,"viability, T/C","second compound 1 µM, first compound 0.949 µM",39.2%
same,"viability, T/C","second compound 1 µM, first compound 3 µM",41.5%
